Measurements reported in patent US20250129430A1, “HIGH ATP-AFFINITY PROTEIN AS THERAPEUTIC TARGET FOR INTRACTABLE CANCER MOLECULAR SUBTYPES AND INHIBITOR THEREOF” (VeraVerse Co., Ltd., priority 2021, published 2025).

Legend:
Experiment in all cases: Cell viability drug screen, 12-point dose-response AUC
Type in all cases: cell-based, human
AGS = AGS cells (non-SEM subtype); 72 hours
Summary of the method: (§1)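 Gastric cancer lines seeded 5×10^3 cells/well, dosed after 24 h with half-log 12-point compound dilutions (DMSO 0.5% control), then 72 h at 37 °C. Viability by luminescence, normalized to DMSO; AUC by trapezoidal method, averaged over repeats.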

Hs746T = Hs746T cells (SEM subtype); 72 hours
Summary of the method: (§2)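 Twelve half-log concentrations per compound were tested on gastric cancer cells with an EMT phenotype (5×10^3/well, dosed 24 h post-seeding). Viability after 72 h was quantified via luminescence relative to 0.5% DMSO, and repeats were averaged.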

KATO3 = KATO3 cells; 72 hours
Summary of the method: as §2

MKN1 = MKN1 cells; 72 hours
Summary of the method: as §2

MKN28 = MKN28 cells; 72 hours
Summary of the method: as §2

MKN45 = MKN45 cells (non-SEM subtype); 72 hours
Summary of the method: as §1

MKN74 = MKN74 cells; 72 hours
Summary of the method: as §1

NCC19 = NCC19 cells; 72 hours
Summary of the method: as §2

NCC20 = NCC20 cells; 72 hours
Summary of the method: as §2

NCC24 = NCC24 cells; 72 hours
Summary of the method: as §2

NCC59 = NCC59 cells; 72 hours
Summary of the method: as §2

NCI_N87 = NCI_N87 cells; 72 hours
Summary of the method: as §2

OCUM1 = OCUM1 cells; 72 hours
Summary of the method: as §2

SK4 = SK4 cells (SEM subtype); 72 hours
Summary of the method: as §2

SNU16 = SNU16 cells; 72 hours
Summary of the method: as §2

SNU1750 = SNU1750 cells (SEM subtype); 72 hours
Summary of the method: as §2

SNU1967 = SNU1967 cells; 72 hours
Summary of the method: as §2

SNU1 = SNU1 cells; 72 hours
Summary of the method: as §2

SNU216 = SNU216 cells (non-SEM subtype); 72 hours
Summary of the method: as §1

SNU484 = SNU484 cells (SEM subtype); 72 hours
Summary of the method: as §2

SNU601 = SNU601 cells; 72 hours
Summary of the method: as §2

SNU620 = SNU620 cells; 72 hours
Summary of the method: as §2

SNU638 = SNU638 cells; 72 hours
Summary of the method: as §2

SNU668 = SNU668 cells (SEM subtype); 72 hours
Summary of the method: as §2

SNU719 = SNU719 cells; 72 hours
Summary of the method: as §1

YCC11 = YCC11 cells (SEM subtype); 72 hours
Summary of the method: as §2

YCC2 = YCC2 cells; 72 hours
Summary of the method: as §2

YCC3 = YCC3 cells; 72 hours
Summary of the method: as §2

FU97 = system: FU97; parameters: Average Area Under the Viability Curve (AUC), AUC norm value: scale not given here; conditions: FU97 cells; 72 hours
Summary of the method: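 Trapezoidal AUC of a 12-point, DMSO-normalized dose-response curve. Luminescent viability was measured after 72 h of exposure at 37° C to half-log serial dilutions (0.5% DMSO control), dosed 24 h after plating FU97 cells at 5×10^3 per well.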

O=C(CCCCCCC(=O)Nc1ccccc1)NO [Vorinostat (SAHA), Vorinostat]
Average Area Under the Viability Curve (AUC), AUC norm value (AGS): −0.5947
Average Area Under the Viability Curve (AUC), AUC norm value (Hs746T): −0.04774
Average Area Under the Viability Curve (AUC), AUC norm value (KATO3): 0
Average Area Under the Viability Curve (AUC), AUC norm value (MKN1): 0.4282
Average Area Under the Viability Curve (AUC), AUC norm value (MKN28): −0.08142
Average Area Under the Viability Curve (AUC), AUC norm value (MKN45): 2.416
Average Area Under the Viability Curve (AUC), AUC norm value (MKN74): −0.07666
Average Area Under the Viability Curve (AUC), AUC norm value (NCC19): 0.2993
Average Area Under the Viability Curve (AUC), AUC norm value (NCC20): −0.9328
Average Area Under the Viability Curve (AUC), AUC norm value (NCC24): −0.3421
Average Area Under the Viability Curve (AUC), AUC norm value (NCC59): 1.01
Average Area Under the Viability Curve (AUC), AUC norm value (NCI_N87): 0.8986
Average Area Under the Viability Curve (AUC), AUC norm value (OCUM1): −0.5166
Average Area Under the Viability Curve (AUC), AUC norm value (SK4): 0.6434
Average Area Under the Viability Curve (AUC), AUC norm value (SNU16): −0.7875
Average Area Under the Viability Curve (AUC), AUC norm value (SNU1750): −0.5737
Average Area Under the Viability Curve (AUC), AUC norm value (SNU1967): −0.2574
Average Area Under the Viability Curve (AUC), AUC norm value (SNU1): −0.2152
Average Area Under the Viability Curve (AUC), AUC norm value (SNU216): −0.04999
Average Area Under the Viability Curve (AUC), AUC norm value (SNU484): 1.041
Average Area Under the Viability Curve (AUC), AUC norm value (SNU601): 2.84
Average Area Under the Viability Curve (AUC), AUC norm value (SNU620): 0.08594
Average Area Under the Viability Curve (AUC), AUC norm value (SNU638): −0.4313
Average Area Under the Viability Curve (AUC), AUC norm value (SNU668): 0.4303
Average Area Under the Viability Curve (AUC), AUC norm value (SNU719): 1.843
Average Area Under the Viability Curve (AUC), AUC norm value (YCC11): −0.2285
Average Area Under the Viability Curve (AUC), AUC norm value (YCC2): 0.09328
Average Area Under the Viability Curve (AUC), AUC norm value (YCC3): 1.034
Average Area Under the Viability Curve (AUC), AUC norm value (FU97): 0.2975

CCOc1cc2ncc(C#N)c(Nc3ccc(OCc4ccccn4)c(Cl)c3)c2cc1NC(=O)/C=C/CN(C)C [Neratinib (HKI-272), Neratinib]
Average Area Under the Viability Curve (AUC), AUC norm value (AGS): −0.9315
Average Area Under the Viability Curve (AUC), AUC norm value (Hs746T): −0.2204
Average Area Under the Viability Curve (AUC), AUC norm value (KATO3): 1.505
Average Area Under the Viability Curve (AUC), AUC norm value (MKN1): −0.4985
Average Area Under the Viability Curve (AUC), AUC norm value (MKN28): 0.1864
Average Area Under the Viability Curve (AUC), AUC norm value (MKN45): 3.029
Average Area Under the Viability Curve (AUC), AUC norm value (MKN74): −1.144
Average Area Under the Viability Curve (AUC), AUC norm value (NCC19): 2.052
Average Area Under the Viability Curve (AUC), AUC norm value (NCC20): −1.6785
Average Area Under the Viability Curve (AUC), AUC norm value (NCC24): 1.205
Average Area Under the Viability Curve (AUC), AUC norm value (NCC59): 1.9785
Average Area Under the Viability Curve (AUC), AUC norm value (NCI_N87): −5.051
Average Area Under the Viability Curve (AUC), AUC norm value (OCUM1): 1.056
Average Area Under the Viability Curve (AUC), AUC norm value (SK4): −1.282
Average Area Under the Viability Curve (AUC), AUC norm value (SNU16): −1.491
Average Area Under the Viability Curve (AUC), AUC norm value (SNU1750): −0.4123
Average Area Under the Viability Curve (AUC), AUC norm value (SNU1967): 0.8381
Average Area Under the Viability Curve (AUC), AUC norm value (SNU1): 1.038
Average Area Under the Viability Curve (AUC), AUC norm value (SNU216): −2.1011
Average Area Under the Viability Curve (AUC), AUC norm value (SNU484): −1.2895
Average Area Under the Viability Curve (AUC), AUC norm value (SNU601): 0.802
Average Area Under the Viability Curve (AUC), AUC norm value (SNU620): 1.117
Average Area Under the Viability Curve (AUC), AUC norm value (SNU638): 0
Average Area Under the Viability Curve (AUC), AUC norm value (SNU668): 0.8456
Average Area Under the Viability Curve (AUC), AUC norm value (SNU719): 1.894
Average Area Under the Viability Curve (AUC), AUC norm value (YCC11): −1.333
Average Area Under the Viability Curve (AUC), AUC norm value (YCC2): −0.1749
Average Area Under the Viability Curve (AUC), AUC norm value (YCC3): 0.3013
Average Area Under the Viability Curve (AUC), AUC norm value (FU97): −0.2016

CC(C)[C@H](C(=O)Nc1ccc(C(=O)NO)cc1)c1ccccc1 [AR-42 (HDAC-42), AR-42]
Average Area Under the Viability Curve (AUC), AUC norm value (AGS): −1.186
Average Area Under the Viability Curve (AUC), AUC norm value (Hs746T): 0.3259
Average Area Under the Viability Curve (AUC), AUC norm value (KATO3): 0.7324
Average Area Under the Viability Curve (AUC), AUC norm value (MKN1): 0.9532
Average Area Under the Viability Curve (AUC), AUC norm value (MKN28): 0.07777
Average Area Under the Viability Curve (AUC), AUC norm value (MKN45): 1.962
Average Area Under the Viability Curve (AUC), AUC norm value (MKN74): 0.1789
Average Area Under the Viability Curve (AUC), AUC norm value (NCC19): 1.026
Average Area Under the Viability Curve (AUC), AUC norm value (NCC20): 0.06736
Average Area Under the Viability Curve (AUC), AUC norm value (NCC24): −0.6217
Average Area Under the Viability Curve (AUC), AUC norm value (NCC59): 2.102
Average Area Under the Viability Curve (AUC), AUC norm value (NCI_N87): −0.1344
Average Area Under the Viability Curve (AUC), AUC norm value (OCUM1): −0.3936
Average Area Under the Viability Curve (AUC), AUC norm value (SK4): −0.3617
Average Area Under the Viability Curve (AUC), AUC norm value (SNU16): −1.427
Average Area Under the Viability Curve (AUC), AUC norm value (SNU1750): −1.401
Average Area Under the Viability Curve (AUC), AUC norm value (SNU1967): −0.9137
Average Area Under the Viability Curve (AUC), AUC norm value (SNU1): −0.3147
Average Area Under the Viability Curve (AUC), AUC norm value (SNU216): 0
Average Area Under the Viability Curve (AUC), AUC norm value (SNU484): 0.127
Average Area Under the Viability Curve (AUC), AUC norm value (SNU601): 1.874
Average Area Under the Viability Curve (AUC), AUC norm value (SNU620): −1.197
Average Area Under the Viability Curve (AUC), AUC norm value (SNU638): −0.7804
Average Area Under the Viability Curve (AUC), AUC norm value (SNU668): 0.2515
Average Area Under the Viability Curve (AUC), AUC norm value (SNU719): 2.169
Average Area Under the Viability Curve (AUC), AUC norm value (YCC11): −0.3298
Average Area Under the Viability Curve (AUC), AUC norm value (YCC2): −0.00569
Average Area Under the Viability Curve (AUC), AUC norm value (YCC3): 0.6875
Average Area Under the Viability Curve (AUC), AUC norm value (FU97): −1.358

CN(C)Cc1c(C(=O)NCCOc2ccc(C(=O)NO)cc2)oc2ccccc12 [PCI-24781]
Average Area Under the Viability Curve (AUC), AUC norm value (AGS): −1.161
Average Area Under the Viability Curve (AUC), AUC norm value (Hs746T): −0.03183
Average Area Under the Viability Curve (AUC), AUC norm value (KATO3): −0.2111
Average Area Under the Viability Curve (AUC), AUC norm value (MKN1): 0.6581
Average Area Under the Viability Curve (AUC), AUC norm value (MKN28): −0.378
Average Area Under the Viability Curve (AUC), AUC norm value (MKN45): 2.259
Average Area Under the Viability Curve (AUC), AUC norm value (MKN74): 0.2128
Average Area Under the Viability Curve (AUC), AUC norm value (NCC19): 0.3282
Average Area Under the Viability Curve (AUC), AUC norm value (NCC20): −1.065
Average Area Under the Viability Curve (AUC), AUC norm value (NCC24): −0.2766
Average Area Under the Viability Curve (AUC), AUC norm value (NCC59): 0.9766
Average Area Under the Viability Curve (AUC), AUC norm value (NCI_N87): −0.3803
Average Area Under the Viability Curve (AUC), AUC norm value (OCUM1): 0
Average Area Under the Viability Curve (AUC), AUC norm value (SK4): 0.451
Average Area Under the Viability Curve (AUC), AUC norm value (SNU16): −1.233
Average Area Under the Viability Curve (AUC), AUC norm value (SNU1750): −1.499
Average Area Under the Viability Curve (AUC), AUC norm value (SNU1967): −1.126
Average Area Under the Viability Curve (AUC), AUC norm value (SNU1): 0.3429
Average Area Under the Viability Curve (AUC), AUC norm value (SNU216): 0.03042
Average Area Under the Viability Curve (AUC), AUC norm value (SNU484): 0.1533
Average Area Under the Viability Curve (AUC), AUC norm value (SNU601): 0.6141
Average Area Under the Viability Curve (AUC), AUC norm value (SNU620): −0.6966
Average Area Under the Viability Curve (AUC), AUC norm value (SNU638): −0.06055
Average Area Under the Viability Curve (AUC), AUC norm value (SNU668): 0.53
Average Area Under the Viability Curve (AUC), AUC norm value (SNU719): 1.428
Average Area Under the Viability Curve (AUC), AUC norm value (YCC11): −0.09531
Average Area Under the Viability Curve (AUC), AUC norm value (YCC2): 0.00064
Average Area Under the Viability Curve (AUC), AUC norm value (YCC3): 0.8426
Average Area Under the Viability Curve (AUC), AUC norm value (FU97): −1.786
